The subject of test [1] is A673 cells. Briefly: Cytotoxicity in A673 cells (Cell Titer Glo viability). In kind it is cell-based. The note with it: for Ratio of Biochemical Potency:Cellular Potency: CDK12 IC50 / A673 IC50; for IC50: Homo sapiens. As for the experimental part: Cells were plated in 96-well plates at a density of […] viable cells per well in 200 μL fully supplemented growth medium (DMEM+10% heat inactivated foetal bovine serum) and incubated for 24 hours in standard tissue culture conditions. Compounds, including MLN4924, were solubilised in DMSO and then diluted in fully supplemented growth medium at 2× their final assay concentration such that the final DMSO concentration was 0.1%. Growth medium in the assay plates was replaced with 50 μL of growth medium containing 2×MLN4924 (final assay concentration: 30 nM, where tested) or vehicle only and 50 μL of growth medium containing a 2× compound concentration series or vehicle only such that each compound was at 1× final assay concentration in 100 μL.
Cells were then incubated for 72 hours in standard tissue culture conditions before viability was assessed using 50 μL Cell Titer Glo reagent (Promega) per well and luminescence measured on an EnVision plate reader. Data were normalised to vehicle control (100%) and cells treated with 0.1% Triton x-100 for 1 hour before viability measurement (0%; full cell kill). […] Viability curves generated in the presence of MLN4924 were normalised and fixed to controls treated with MLN4924.
For orientation: ATP-based viability assays read luminescence as a measure of living cells.

Test [2] concerns the target Human CDK12 wt/CycK (Homo sapiens (Human), UniProt Q9NYV4). Briefly: Radiometric protein kinase assay (33PanQinase Activity Assay), CDK12. The note with it: for CDK7/CDK12: ratio of CDK7 IC50 to CDK12 IC50, greater than 1 indicates selectivity for CDK12. In kind it is biochemical. As for the experimental part:
(§1) A radiometric protein kinase assay (^33PanQinase® Activity Assay) was used for measuring the kinase activity of the two protein kinases (CDK12/CDK7). All kinase assays were performed in 96-well FlashPlates™ from PerkinElmer (Boston, MA, USA) in a 50 μL reaction volume.
(§2) The reaction cocktail was pipetted in four steps in the following order: • 20 μL of assay buffer (standard buffer) • 5 μL of ATP solution (in H2O) • 5 μL of test compound (in 10% DMSO) • 10 μL of substrate/10 μL of enzyme solution (premixed)
(§3) The reaction mixture was incubated at 30° C. for 60 min and then stopped by the addition of 2% (v/v) H3PO4. Plates were aspirated and washed two times with 200 μL 0.9% (w/v) NaCl. Incorporation of ^33Pi was determined with a microplate scintillation count (Microbeta, Wallac).
The fitting method used was a least-squares fit.

The target of test [3] is Human CDK7/CycH/MAT1 (Homo sapiens (Human), UniProt P50613). Nature of the test: Radiometric protein kinase assay (33PanQinase Activity Assay), CDK7. It counts as biochemical. The note with it: ATP 3 μM. The protocol:
Additionally for the CDK7 assay: • Human CDK7/CycH/MAT1 (ProQinase, 0366-0360-4—Lot 2). • RBER-CHKtide (ProQinase, 0581-0000-5—Lot 106).
as §1, §2
For the CDK7 assay, a reaction mixture (50 μL) containing the following components was prepared: • 70 mM HEPES-NaOH (pH 7.5); • sodium orthovanadate (3 μM); • PEG-20000 (50 μg/mL); • DTT (1.2 mM); • MgCl2 (3 mM); • MnCl2 (3 mM); • purified human CDK7/CycH/MAT1 (3.3 nM—Lot 02); • RBER-CHKtide substrate (40 μg/mL—Lot 106); • ATP (3 μM); • [γ-33P]-ATP (approx. 8×10^5 cpm per well); and • test compound at the appropriate concentration such that the final concentration of DMSO was […].
as §3
The residual activities for each concentration and the compound IC50 values were calculated using Quattro Workflow V3.1.1 (Quattro Research GmbH, Munich, Germany). The fitting model for the IC50 determinations was “Sigmoidal response (variable slope)” with parameters “top” fixed at 100% and “bottom” at 0%. The fitting method used was a least-squares fit.

[4] abbreviates: A673, read-out: Cellular Potency IC50 (nM) (in A673 cells).
Setting [5] is: A673 cells, 72 hours, read-out: A673 IC50.
[6] abbreviates: ATP 0.3 μM, read-out: CDK12 IC50.
Setting [7] is: read-out: CKD12 Biochemical Potency IC50.

The structures appear in SMILES notation. Like-named read-outs stand apart in the source and are kept apart here.

Sequence of Human CDK12 wt/CycK (Q9NYV4 whole entry): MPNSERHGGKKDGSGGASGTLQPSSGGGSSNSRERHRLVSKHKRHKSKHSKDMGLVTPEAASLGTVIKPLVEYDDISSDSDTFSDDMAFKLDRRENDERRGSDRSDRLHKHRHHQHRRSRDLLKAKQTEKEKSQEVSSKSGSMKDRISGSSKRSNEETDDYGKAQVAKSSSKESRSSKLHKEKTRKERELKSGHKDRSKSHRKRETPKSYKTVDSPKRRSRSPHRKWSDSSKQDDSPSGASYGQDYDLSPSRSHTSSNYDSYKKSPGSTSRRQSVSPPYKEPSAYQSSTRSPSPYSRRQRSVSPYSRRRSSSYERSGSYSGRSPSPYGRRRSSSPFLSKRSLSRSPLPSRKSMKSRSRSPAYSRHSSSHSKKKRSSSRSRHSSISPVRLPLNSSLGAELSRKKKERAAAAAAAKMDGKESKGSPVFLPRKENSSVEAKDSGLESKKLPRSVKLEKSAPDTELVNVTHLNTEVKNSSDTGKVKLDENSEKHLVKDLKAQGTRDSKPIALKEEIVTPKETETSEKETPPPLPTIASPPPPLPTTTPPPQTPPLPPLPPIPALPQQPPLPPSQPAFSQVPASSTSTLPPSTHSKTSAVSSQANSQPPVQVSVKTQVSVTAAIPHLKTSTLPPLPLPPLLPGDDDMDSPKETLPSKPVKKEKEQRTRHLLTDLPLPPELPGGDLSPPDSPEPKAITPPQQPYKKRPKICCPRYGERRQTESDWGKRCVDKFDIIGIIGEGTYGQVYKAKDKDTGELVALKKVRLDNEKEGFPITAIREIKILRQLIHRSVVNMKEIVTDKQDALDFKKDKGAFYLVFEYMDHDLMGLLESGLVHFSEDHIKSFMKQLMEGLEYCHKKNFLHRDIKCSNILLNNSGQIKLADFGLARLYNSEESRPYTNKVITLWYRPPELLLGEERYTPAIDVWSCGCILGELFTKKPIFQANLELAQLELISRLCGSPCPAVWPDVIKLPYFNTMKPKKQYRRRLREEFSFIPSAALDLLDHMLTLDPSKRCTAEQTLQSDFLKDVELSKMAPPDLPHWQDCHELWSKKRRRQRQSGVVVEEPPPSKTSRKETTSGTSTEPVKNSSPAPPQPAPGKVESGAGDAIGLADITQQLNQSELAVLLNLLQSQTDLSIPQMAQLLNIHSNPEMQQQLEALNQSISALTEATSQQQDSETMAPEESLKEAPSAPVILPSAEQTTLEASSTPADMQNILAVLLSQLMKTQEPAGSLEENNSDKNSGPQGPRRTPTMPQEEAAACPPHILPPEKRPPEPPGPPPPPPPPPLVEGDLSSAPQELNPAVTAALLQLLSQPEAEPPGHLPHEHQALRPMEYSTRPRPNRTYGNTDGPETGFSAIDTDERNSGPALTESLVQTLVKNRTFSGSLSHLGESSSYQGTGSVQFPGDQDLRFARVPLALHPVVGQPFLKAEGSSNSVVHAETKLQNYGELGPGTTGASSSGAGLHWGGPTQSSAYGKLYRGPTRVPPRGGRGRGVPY
Sequence of Human CDK12 wt/CycK (O75909 whole entry partner): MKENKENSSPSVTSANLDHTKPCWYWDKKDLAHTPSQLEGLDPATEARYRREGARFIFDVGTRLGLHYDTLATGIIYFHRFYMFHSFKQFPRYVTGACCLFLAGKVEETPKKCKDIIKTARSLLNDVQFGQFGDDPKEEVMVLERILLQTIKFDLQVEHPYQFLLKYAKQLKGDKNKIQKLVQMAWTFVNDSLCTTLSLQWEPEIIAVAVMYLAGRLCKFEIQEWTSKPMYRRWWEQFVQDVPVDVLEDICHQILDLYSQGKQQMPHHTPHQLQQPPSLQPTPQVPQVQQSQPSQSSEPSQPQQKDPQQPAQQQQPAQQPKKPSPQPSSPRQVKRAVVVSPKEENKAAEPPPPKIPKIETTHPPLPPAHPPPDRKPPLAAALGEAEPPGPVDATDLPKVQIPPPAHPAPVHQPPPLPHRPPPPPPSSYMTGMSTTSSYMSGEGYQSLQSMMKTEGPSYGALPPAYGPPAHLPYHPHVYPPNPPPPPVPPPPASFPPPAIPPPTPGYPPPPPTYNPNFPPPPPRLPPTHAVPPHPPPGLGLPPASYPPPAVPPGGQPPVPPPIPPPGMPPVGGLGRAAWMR
Sequence of Human CDK7/CycH/MAT1 (P50613 whole entry): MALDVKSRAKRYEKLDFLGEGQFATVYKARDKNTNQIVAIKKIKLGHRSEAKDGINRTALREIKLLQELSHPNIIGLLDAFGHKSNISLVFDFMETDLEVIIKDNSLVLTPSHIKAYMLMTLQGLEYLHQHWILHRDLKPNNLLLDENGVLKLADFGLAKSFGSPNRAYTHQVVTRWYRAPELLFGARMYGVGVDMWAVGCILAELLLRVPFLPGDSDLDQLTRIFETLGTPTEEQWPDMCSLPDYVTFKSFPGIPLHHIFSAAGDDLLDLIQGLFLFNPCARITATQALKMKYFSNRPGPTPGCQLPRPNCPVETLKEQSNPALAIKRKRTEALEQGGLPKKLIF
Sequence of Human CDK7/CycH/MAT1 (P51946 whole entry partner): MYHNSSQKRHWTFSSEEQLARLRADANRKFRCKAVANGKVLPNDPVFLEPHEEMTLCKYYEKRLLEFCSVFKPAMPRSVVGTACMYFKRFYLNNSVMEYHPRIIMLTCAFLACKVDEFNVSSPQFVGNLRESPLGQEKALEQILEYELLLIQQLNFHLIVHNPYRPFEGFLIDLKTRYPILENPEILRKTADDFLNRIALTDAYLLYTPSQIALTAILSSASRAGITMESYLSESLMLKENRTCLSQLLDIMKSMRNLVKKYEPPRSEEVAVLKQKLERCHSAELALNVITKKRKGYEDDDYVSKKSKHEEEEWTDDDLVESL
Sequence of Human CDK7/CycH/MAT1 (P51948 whole entry partner): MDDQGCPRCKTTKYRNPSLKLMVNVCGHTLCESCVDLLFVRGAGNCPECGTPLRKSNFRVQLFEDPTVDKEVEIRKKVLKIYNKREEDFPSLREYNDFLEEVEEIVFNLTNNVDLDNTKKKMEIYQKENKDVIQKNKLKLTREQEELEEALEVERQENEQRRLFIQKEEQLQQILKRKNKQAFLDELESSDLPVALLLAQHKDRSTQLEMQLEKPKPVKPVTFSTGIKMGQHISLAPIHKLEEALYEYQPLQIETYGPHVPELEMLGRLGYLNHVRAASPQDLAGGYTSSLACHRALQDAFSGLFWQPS

On to `O[C@H]1CNCC[C@@H]1CNc1cc(NCc2ccc(-c3ccccc3)cn2)n2ncc(C3CC3)c2n1` [PPA-034], for which, in test [1], the “Ratio of Biochemical Potency:Cellular Potency” value (“Ratio” below) stood at 10.71. For the same compound, the IC50 (usually the concentration at which inhibition is half-maximal) in test [1] (setting [4]) was 11.3 nM; in test [1] (setting [5]), 11.3 nM; in test [2] (setting [6]), 121 nM; in test [2] (setting [7]), 121 nM; in test [3], 530 nM. In addition, in test [2], the CDK7/CDK12 turned out to be 4.4.
With `COc1cc(CNc2cc(NC[C@H]3CCNC[C@@H]3O)nc3c(C4CC4)cnn23)ccc1-c1ccccn1` [PPA-015], in test [1], the “Ratio” value was 1.31. In addition, the IC50 was found to be 179 nM in test [1] (setting [4]); 179 nM in test [1] (setting [5]); 235 nM in test [2] (setting [6]); 235 nM in test [2] (setting [7]); 445 nM in test [3]. Also, the CDK7/CDK12 in test [2] amounted to 1.9.
As for `O[C@H]1CNCC[C@@H]1CNc1cc(NCc2cc(F)c(-c3ccccn3)cn2)n2ncc(C3CC3)c2n1` [PPA-022], the “Ratio” value in test [1] was 48.00. For the same compound, the IC50 in test [1] (setting [4]) was 1.5 nM; in test [1] (setting [5]) it was 1.5 nM; in test [2] (setting [6]), 72 nM; in test [2] (setting [7]) it was 72 nM; in test [3], 130 nM. Further, the CDK7/CDK12 in test [2] amounted to 1.8.
For the compound `O[C@H]1CNCC[C@@H]1CNc1cc(NCc2ccc(-c3cscn3)cc2)n2ncc(C3CC3)c2n1` [PPA-035], in test [1], the “Ratio” value is recorded as 28.89. Moreover, the 50% inhibitory concentration (IC50) in test [1] (setting [4]) amounted to 1.8 nM; in test [1] (setting [5]), 1.8 nM; in test [2] (setting [6]) it was 52 nM; in test [2] (setting [7]) it was 52 nM; in test [3], 113 nM. The CDK7/CDK12 in test [2] came to 2.2.
For the compound `CCc1cnn2c(NCc3ccc(-c4ccccc4)cc3)cc(NC[C@H]3CCNC[C@@H]3O)nc12` [PPA-082], the “Ratio” value in test [1] amounted to 4.58. In addition, the IC50 in test [1] (setting [4]) amounted to 9.6 nM; in test [1] (setting [5]), 9.6 nM; in test [2] (setting [6]) it was 44 nM; in test [2] (setting [7]), 44 nM; in test [3] it was 125 nM. Besides, in test [2], the CDK7/CDK12 was 2.8.
On to `c1ccc(-c2ccc(CNc3cc(-c4ccn[nH]4)nc4c(C5CC5)cnn34)cc2)nc1` [PPA-079], for which the “Ratio” value in test [1] is on record as under 11.9. Further, the IC50 in test [1] (setting [4]) was over 100 nM; in test [1] (setting [5]) it was over 100 nM; in test [2] (setting [6]) it was 1190 nM; in test [2] (setting [7]), 1190 nM; in test [3], over 30000 nM.
In the case of `O[C@H]1CNCC[C@@H]1CNc1cc(NCc2cn(-c3ccccn3)cn2)n2ncc(C3CC3)c2n1` [PPA-025], in test [1], the “Ratio” value came to 13.22. Moreover, the 50% inhibitory concentration (IC50) turned out to be 5.9 nM in test [1] (setting [4]); 5.9 nM in test [1] (setting [5]); 78 nM in test [2] (setting [6]); 78 nM in test [2] (setting [7]); 587 nM in test [3]. For the same compound, the CDK7/CDK12 in test [2] was 7.5.
As for `CC(C)c1cnn2c(NCc3ccc(-c4ccncn4)cc3)cc(NC[C@H]3CCNC[C@@H]3O)nc12` [PPA-008], the “Ratio” value in test [1] turned out to be 1.63. Also, the IC50 was determined as 32 nM in test [1] (setting [4]); 32 nM in test [1] (setting [5]); 52 nM in test [2] (setting [6]); 52 nM in test [2] (setting [7]); 154 nM in test [3]. In addition, in test [2], the CDK7/CDK12 was 3.0.
Regarding `O[C@H]1CNCC[C@@H]1CNc1cc(NCc2ccc(-c3ccccn3)cc2F)n2ncc(Cl)c2n1` [PPA-074], the “Ratio” value in test [1] was 32.86. Moreover, the IC50 in test [1] (setting [4]) turned out to be 0.7 nM; in test [1] (setting [5]) it was 0.7 nM; in test [2] (setting [6]) it was 23 nM; in test [2] (setting [7]), 23 nM; in test [3], 350 nM. In addition, the CDK7/CDK12 in test [2] was determined as 15.2.

The values are drawn from patent US20240383900A1, “SUBSTITUTED PYRAZOLO [1,5-A]PYRIMIDINE-7-AMINE COMPOUNDS AS CDK INHIBITORS AND THEIR THERAPEUTIC USE” (Carrick Therapeutics Limited, priority 2021, published 2024).
